Measurements as given in patent US20220031607A1, “INJECTION COMPOSITION CONTAINING FAB I INHIBITOR, AND PREPARATION METHOD THEREFOR” (CRYSTALGENOMICS, INC., priority 2019, published 2022).
Values after ≈ are worked out from the molar mass of the structure shown. Where two headings read alike, the source gives them in different places.

Experiments:
Type in all cases: cell-based
[1] = test system: Methicillin-resistant Staphylococcus aureus (MRSA) strains; test: Drug susceptibility (MIC) of MRSA clinical isolates
Protocol: (§1) In order to verify the inhibitory effect of the compound of formula 1 on antibiotic-resistant strains, drug susceptibility was evaluated by treating the compound of formula 1 with Staphylococcus aureus phenotype isolated from each patient. In an in vitro test for antibiotic development, the most important result can be MIC90 (minimum inhibitory concentration required to inhibit the growth of 90% of the total bacterial population). […] Appelbaum at Hershey Hospital who is recognized for its authority in the field of anti-infection worldwide.

[2] = test system: Methicillin-susceptible Staphylococcus aureus strains; test: Drug susceptibility (MIC) of methicillin-susceptible clinical isolates
Protocol: as §1

[3] = test system: Staphylococcus aureus ATCC 29213 (MSSA, standard strain); test: Susceptibility test (MIC), standard strain
Protocol: (§2) For the compound of formula 1, pharmacokinetic/pharmacodynamic experiments were conducted using a mouse infection model. To this end, experiments were conducted with Staphylococcus aureus ATCC 29213 (MSSA, standard strain) and 13B-382 (MRSA, clinical strain). As a medium, Mueller-Hinton broth or Cation-adjusted Mueller-Hinton broth was used. For the susceptibility test (minimum inhibitory concentration (MIC)), the compound of formula 1 was used.

[4] = test system: Staphylococcus aureus 13B-382 (MRSA, clinical strain); test: Susceptibility test (MIC), clinical strain
Protocol: as §2

[5] = Staphylococcus aureus, MRSA, Methicillin-resistant, n = 100, read-out: MIC50
[6] = Staphylococcus aureus, MRSA, Methicillin-resistant, n = 100, read-out: MIC90
[7] = Methicillin-susceptible, n = 103
[8] = Staphylococcus aureus, Methicillin-susceptible, n = 103, read-out: MIC50
[9] = Staphylococcus aureus, Methicillin-susceptible, n = 103, read-out: MIC90

| Compound | MIC50 [1, 5] [µg/mL] | MIC90 [1, 6] [µg/mL] | MIC Range [2, 7] [µg/mL] | MIC50 [2, 8] [µg/mL] | MIC90 [2, 9] [µg/mL] | further results |
| --- | --- | --- | --- | --- | --- | --- |
| CCCCCCCCCC(=O)N[C@@H](Cc1c[nH]c2ccccc12)C(=O)N[C@H](CC(N)=O)C(=O)N[C@@H](CC(=O)O)C(=O)N[C@@H]1C(=O)NCC(=O)N[C@@H](CCCN)C(=O)N[C@@H](CC(=O)O)C(=O)N[C@H](C)C(=O)N[C@@H](CC(=O)O)C(=O)NCC(=O)N[C@H](CO)C(=O)N[C@@H]([C@H](C)CC(=O)O)C(=O)N[C@@H](CC(=O)c2ccccc2N)C(=O)O[C@@H]1C [Daptomycin] | 0.5 (≈ 0.309 µM) | 0.5 (≈ 0.309 µM) | 0.25 to 2.0 | 1 (≈ 0.617 µM) | 1 (≈ 0.617 µM) | MIC Range ([1]; Methicillin-resistant, n = 100): 0.25 to 4.0 µg/mL |
| CN[C@H](CC(C)C)C(=O)N[C@H]1C(=O)N[C@@H](CC(N)=O)C(=O)N[C@H]2C(=O)N[C@H]3C(=O)N[C@H](C(=O)N[C@H](C(=O)O)c4cc(O)cc(O)c4-c4cc3ccc4O)[C@H](O)c3ccc(c(Cl)c3)Oc3cc2cc(c3O[C@@H]2O[C@H](CO)[C@@H](O)[C@H](O)[C@H]2O[C@H]2C[C@](C)(N)[C@H](O)[C@H](C)O2)Oc2ccc(cc2Cl)[C@H]1O [Vancomycin] |  |  | 1.0 to 2.0 |  |  | MIC50 ([1]; Staphylococcus aureus, MRSA): 1 µg/mL (≈ 0.69 µM); MIC90 ([1]; Staphylococcus aureus, MRSA): 2 µg/mL (≈ 1.38 µM); MIC ([1]; Staphylococcus aureus, MRSA / VRSA): > 64 µg/mL; MIC ([3]; Staphylococcus aureus): 0.5 µg/mL (≈ 0.345 µM); MIC50 ([2]; Staphylococcus aureus): 1 µg/mL (≈ 0.69 µM); MIC90 ([2]; Staphylococcus aureus): 2 µg/mL (≈ 1.38 µM); MIC ([4]; Staphylococcus aureus): 1 µg/mL (≈ 0.69 µM) |
| Teicoplanin |  |  | 0.125 to 8.0 |  |  | MIC50 ([1]; Methicillin-resistant, n = 100): 1 µg/mL; MIC90 ([1]; Methicillin-resistant, n = 100): 2 µg/mL; MIC50 [2, 7]: 1 µg/mL; MIC90 [2, 7]: 2 µg/mL |
| CC(=O)NC[C@H]1CN(c2ccc(N3CCOCC3)c(F)c2)C(=O)O1 [Linezolid] | 1 (≈ 2.96 µM) | 2 (≈ 5.93 µM) | 0.25 to 2.0 | 1 (≈ 2.96 µM) | 2 (≈ 5.93 µM) | MIC Range ([1]; Methicillin-resistant, n = 100): 0.25 to 2.0 µg/mL |
| Cc1onc(-c2ccccc2)c1C(=O)N[C@@H]1C(=O)N2[C@@H]1SC(C)(C)[C@@H]2C(=O)O [Oxacillin] |  |  |  |  |  | MIC ([3]; Staphylococcus aureus ATCC 29213, read-out: MIC): 0.25 µg/mL (≈ 0.623 µM); MIC ([4]; Staphylococcus aureus 13B-382, read-out: MIC): 16 µg/mL (≈ 39.9 µM) |
| CC[C@H]1OC(=O)[C@H](C)[C@@H](O[C@H]2C[C@@](C)(OC)[C@@H](O)[C@H](C)O2)[C@H](C)[C@@H](O[C@@H]2O[C@H](C)C[C@H](N(C)C)[C@H]2O)[C@](C)(O)C[C@@H](C)CN(C)[C@H](C)[C@@H](O)[C@]1(C)O [Azithromycin] | > 64 | > 64 |  | 1 (≈ 1.34 µM) | > 64 |  |
| C[C@H]1COc2c(N3CCN(C)CC3)c(F)cc3c(=O)c(C(=O)O)cn1c23 [Levofloxacin] | 1 (≈ 2.77 µM) | > 32 | ≤0.06 to 32.0 | 0.25 (≈ 0.692 µM) | 4 (≈ 11.1 µM) |  |
